The numbers were not newly measured in publication PMC8698672, “Selective Anticancer and Antimicrobial Metallodrugs Based on Gold(III) Dithiocarbamate Complexes” (Biomedicines, 2021), which cites them from elsewhere.

A word on the IC50: it is the midpoint of a concentration-inhibition curve.

The subject of the data set is Caco-2/TC7 tumor cells. The settings on record: reference drugs, Caco-2 tumor cells; ref [27]; cited from earlier work.

Molecules are shown by their SMILES.

As to `CC(=O)OC[C@H]1O[C@@H]([S-])[C@H](OC(C)=O)[C@@H](OC(C)=O)[C@@H]1OC(C)=O.CCP(CC)CC.[Au+]` [auranofin, 2,3,4,6-tetra-o-acetyl-1-thio-b-D-glucopyranosato-(S)-triethylphosphine gold(I)], the IC50 is 2100 ± 400 nM.
